Assay results from PMC8398451, “Molecular Engineering of Curcumin, an Active Constituent of Curcuma longa L. (Turmeric) of the Family Zingiberaceae with Improved Antiproliferative Activity” (Plants, 2021).
Like-named read-outs stand apart in the source and are kept apart here.

Experiments:
[1] = test system: SK-MEL-2; assay: NCI antiproliferative SRB assay, Melanoma panel; type: cell-based, Human; conditions: for %GI / GP (growth percent): one dose 10 µM
[2] = test system: ACHN; assay: NCI antiproliferative SRB assay, Renal Cancer panel; type: cell-based, Human; conditions: for %GI / GP (growth percent): one dose 10 µM
[3] = test system: NCI-H322M; assay: NCI antiproliferative SRB assay, Non-Small Cell Lung Cancer panel; type: cell-based, Human; conditions: for %GI / GP (growth percent): one dose 10 µM
[4] = test system: SNB-75; assay: NCI antiproliferative SRB assay, CNS Cancer panel; type: cell-based, Human; conditions: for %GI / GP (growth percent): one dose 10 µM
[5] = test system: PC-3; assay: NCI antiproliferative SRB assay, Prostate Cancer panel; type: cell-based, Human; conditions: for %GI / GP (growth percent): one dose 10 µM
[6] = test system: MDA-MB-435; assay: NCI antiproliferative SRB assay, Melanoma panel; type: cell-based; conditions: for %GI / GP (growth percent): one dose 10 µM
[7] = test system: Non-Small Cell Lung Cancer cell line panel; assay: NCI antiproliferative assay, panel summary; type: cell-based, Human; conditions: for Mean % GI: 10 µM
[8] = test system: 60 NCI cancer cell lines; assay: NCI antiproliferative assay, summary over all lines; type: cell-based; conditions: for Mean % GI / Mean GP: mean over cell lines, one dose 10 µM
[9] = test system: Renal Cancer cell line panel; assay: NCI antiproliferative assay, panel summary; type: cell-based, Human; conditions: Renal Cancer panel; for Mean % GI: 10 µM
[10] = test system: SR; assay: NCI antiproliferative SRB assay, Leukemia panel; type: cell-based, Human
[11] = test system: SN 12C; assay: NCI antiproliferative SRB assay, Renal Cancer panel; type: cell-based, Human; conditions: for %GI / GP (growth percent): one dose 10 µM
[12] = test system: SK-MEL-5; assay: NCI antiproliferative SRB assay, Melanoma panel; type: cell-based, Human; conditions: for %GI / GP (growth percent): one dose 10 µM
[13] = test system: K-562; assay: NCI antiproliferative SRB assay, Leukemia panel; type: cell-based, Human; conditions: for %GI / GP (growth percent): one dose 10 µM
[14] = test system: A498; assay: NCI antiproliferative SRB assay, Renal Cancer panel; type: cell-based, Human; conditions: for %GI / GP (growth percent): one dose 10 µM
[15] = test system: SF-295; assay: NCI antiproliferative SRB assay, CNS Cancer panel; type: cell-based, Human; conditions: for %GI / GP (growth percent): one dose 10 µM
[16] = test system: A549/ATCC; assay: NCI antiproliferative SRB assay, Non-Small Cell Lung Cancer panel; type: cell-based, Human; conditions: for %GI / GP (growth percent): one dose 10 µM
[17] = test system: T-47D; assay: NCI antiproliferative SRB assay, Breast Cancer panel; type: cell-based, Human; conditions: for %GI / GP (growth percent): one dose 10 µM
[18] = test system: SNB-19; assay: NCI antiproliferative SRB assay, CNS Cancer panel; type: cell-based, Human; conditions: for %GI / GP (growth percent): one dose 10 µM
[19] = test system: DU-145; assay: NCI antiproliferative SRB assay, Prostate Cancer panel; type: cell-based, Human; conditions: for %GI / GP (growth percent): one dose 10 µM
[20] = test system: EKVX; assay: NCI antiproliferative SRB assay, Non-Small Cell Lung Cancer panel; type: cell-based, Human; conditions: for %GI / GP (growth percent): one dose 10 µM
[21] = test system: LOX IMVI; assay: NCI antiproliferative SRB assay, Melanoma panel; type: cell-based, Human; conditions: for %GI / GP (growth percent): one dose 10 µM
[22] = test system: Ovarian Cancer cell line panel; assay: NCI antiproliferative assay, panel summary; type: cell-based, Human; conditions: for Mean % GI: 10 µM
[23] = test system: HCT-15; assay: NCI antiproliferative SRB assay, Colon Cancer panel; type: cell-based, Human
[24] = test system: HOP-92; assay: NCI antiproliferative SRB assay, Non-Small Cell Lung Cancer panel; type: cell-based
[25] = biological target: T1, EGFR (Homo sapiens, UniProt P00533); assay: Spectrophotometric assay for EGFR tyrosine kinase inhibition in A431 cells; type: cell-based; conditions: absorbance at 540 nm
T1 construct: tested for anti-EGFR activity in human A431 cells, which express high levels of EGFR protein; endogenous in cells; host or cells: human A431 cells

[26] = Homo sapiens, 5-dose 0.01-100 µM
[27] = Homo sapiens, 5-dose 0.01-100 µM, read-out: LC50 (the source's name)
[28] = Homo sapiens, 5-dose assay, read-out: Sub Panel MID b (mean GI50 of panel)
[29] = Homo sapiens, T47D, 5-dose 0.01-100 µM

T1 sequence (P00533 25-1210): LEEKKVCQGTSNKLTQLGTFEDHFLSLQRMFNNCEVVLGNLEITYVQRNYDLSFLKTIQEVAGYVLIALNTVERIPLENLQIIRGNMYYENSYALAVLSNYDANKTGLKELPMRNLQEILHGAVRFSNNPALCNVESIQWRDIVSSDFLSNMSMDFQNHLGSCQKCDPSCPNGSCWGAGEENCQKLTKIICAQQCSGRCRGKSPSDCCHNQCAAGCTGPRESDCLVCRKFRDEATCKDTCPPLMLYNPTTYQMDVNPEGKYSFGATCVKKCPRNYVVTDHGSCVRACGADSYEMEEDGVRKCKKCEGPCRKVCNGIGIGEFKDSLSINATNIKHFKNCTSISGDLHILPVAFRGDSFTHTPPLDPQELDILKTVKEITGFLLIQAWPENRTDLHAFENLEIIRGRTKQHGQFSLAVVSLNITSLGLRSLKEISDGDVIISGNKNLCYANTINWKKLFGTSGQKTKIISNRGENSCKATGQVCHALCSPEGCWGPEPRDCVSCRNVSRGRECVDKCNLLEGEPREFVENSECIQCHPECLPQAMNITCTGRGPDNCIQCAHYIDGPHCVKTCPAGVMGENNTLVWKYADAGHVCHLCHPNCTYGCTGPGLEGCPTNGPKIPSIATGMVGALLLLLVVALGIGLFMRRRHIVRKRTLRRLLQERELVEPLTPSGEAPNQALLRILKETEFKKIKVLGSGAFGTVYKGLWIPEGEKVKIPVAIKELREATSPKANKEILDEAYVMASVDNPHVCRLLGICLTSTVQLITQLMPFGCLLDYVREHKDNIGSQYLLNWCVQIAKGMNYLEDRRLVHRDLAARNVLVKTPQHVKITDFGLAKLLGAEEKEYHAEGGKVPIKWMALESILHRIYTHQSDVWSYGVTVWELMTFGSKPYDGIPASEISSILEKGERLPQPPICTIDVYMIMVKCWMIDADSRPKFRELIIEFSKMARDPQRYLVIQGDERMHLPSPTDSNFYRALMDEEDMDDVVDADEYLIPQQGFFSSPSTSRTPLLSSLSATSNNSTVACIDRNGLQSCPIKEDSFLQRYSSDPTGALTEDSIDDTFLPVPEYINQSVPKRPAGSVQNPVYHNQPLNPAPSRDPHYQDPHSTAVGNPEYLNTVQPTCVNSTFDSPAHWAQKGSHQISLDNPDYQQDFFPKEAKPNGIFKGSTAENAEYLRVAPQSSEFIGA

SMILES: COc1ccc(/C=C/c2cc(/C=C/c3ccc(OC)c(O)c3)n(-c3cccc(Cl)c3)c(=S)n2)cc1O [3a]
- %GI [1]: 4.85%
- GP (growth percent) [1]: 95.15
- %GI [2]: 4.99%
- GP (growth percent) [2]: 95.01
- %GI [3]: 8.07%
- GP (growth percent) [3]: 91.93
- %GI [4]: 19.22%
- GP (growth percent) [4]: 80.78
- %GI [5]: 10.79%
- GP (growth percent) [5]: 89.21
- %GI [6]: 18.68%
- GP (growth percent) [6]: 81.32
- Mean % GI [7]: 17.22%
- Mean % GI [8]: 17.68%
- Mean GP [8]: 82.32
- Mean % GI [9]: 7.23%
- %GI ([10]; one dose 10 µM): 51.28%
- GP (growth percent) ([10]; one dose 10 µM): 48.72
- %GI [11]: 7.39%
- GP (growth percent) [11]: 92.61
- %GI [12]: 21.01%
- GP (growth percent) [12]: 78.99
- %GI [13]: 40.77%
- GP (growth percent) [13]: 59.23
- %GI [14]: −4.38%
- GP (growth percent) [14]: 104.38
- %GI [15]: −9.94%
- GP (growth percent) [15]: 109.94
- %GI [16]: 27.44%
- GP (growth percent) [16]: 72.56
- %GI [17]: 36.18%
- GP (growth percent) [17]: 63.82
- %GI [18]: 15.45%
- GP (growth percent) [18]: 84.55
- %GI [19]: 19.16%
- GP (growth percent) [19]: 80.84
- %GI [20]: 14.19%
- GP (growth percent) [20]: 85.81
- %GI [21]: 21.36%
- GP (growth percent) [21]: 78.64
- Mean % GI [22]: 7.04%
- %GI ([23]; one dose 10 µM): 6.07%
- GP (growth percent) ([23]; one dose 10 µM): 93.93

SMILES: COc1ccc(NC(=O)n2nc(/C=C/c3ccc(O)c(OC)c3)cc2/C=C/c2ccc(O)c(OC)c2)cc1 [3b]
- TGI ([1]; 5-dose 0.01-100 µM): 18.1 µM
- GI50 [1, 26]: 3.23 µM
- CC50 [1, 27]: > 100 µM
- %GI [1]: 78.62%
- GP (growth percent) [1]: 21.38
- TGI ([2]; 5-dose 0.01-100 µM): >100 µM
- GI50 [2, 26]: 4.18 µM
- CC50 [2, 27]: > 100 µM
- %GI [2]: 77.93%
- GP (growth percent) [2]: 26.03
- TGI ([3]; 5-dose 0.01-100 µM): 72.5 µM
- GI50 [3, 26]: 3.87 µM
- CC50 [3, 27]: > 100 µM
- %GI [3]: 41.86%
- GP (growth percent) [3]: 58.14
- TGI ([24]; 5-dose 0.01-100 µM): >100 µM
- GI50 ([24]; Homo sapiens, 5-dose 0.01-100 µM, read-out: GI50): 7.77 µM
- CC50 [24, 27]: > 100 µM
- %GI ([24]; one dose 10 µM): 10.93%
- GP (growth percent) ([24]; one dose 10 µM): 89.07
- TGI ([4]; 5-dose 0.01-100 µM): 16.3 µM
- GI50 [4, 26]: 2350 nM
- CC50 [4, 27]: > 100 µM
- %GI [4]: 67.39%
- GP (growth percent) [4]: 32.61
- TGI ([5]; 5-dose 0.01-100 µM): >100 µM
- GI50 [5, 26]: 5.11 µM
- CC50 [5, 27]: > 100 µM
- %GI [5]: 71.57%
- GP (growth percent) [5]: 28.43
- TGI ([6]; 5-dose 0.01-100 µM): 4.68 µM
- GI50 ([6]; Homo sapiens): 1250 nM
- CC50 [6, 27]: > 100 µM
- %GI [6]: 136.25%
- GP (growth percent) [6]: −36.25
- Mean % GI [7]: 56.51%
- Selectivity Ratio (MID a:MID b) ([7]; 5-dose assay): 0.92
- GI50 [7, 28]: 5.32 µM
- GI50 ([8]; Homo sapiens, read-out: GI50 values, range over cell lines): 1.25 to 18.8 µM
- CC50 ([8]; Homo sapiens, 5-dose assay, read-out: LC50 over cell lines): > 100 µM
- GI50 ([8]; Homo sapiens, 5-dose assay, read-out: MID a (mean GI50 of 60 NCI cancer cell lines)): 4.89 µM
- Mean % GI [8]: 66.46%
- Mean GP [8]: 33.54
- GI50 [9, 28]: 5.84 µM
- Mean % GI [9]: 60.54%
- Selectivity Ratio (MID a:MID b) ([9]; 5-dose assay): 0.84
- TGI ([10]; 5-dose 0.01-100 µM): 12.8 µM
- GI50 [10, 26]: 1520 nM
- CC50 [10, 27]: > 100 µM
- TGI ([11]; 5-dose 0.01-100 µM): 33.7 µM
- GI50 ([11]; Homo sapiens, SN12C, 5-dose 0.01-100 µM): 3.05 µM
- CC50 ([11]; Homo sapiens, SN12C, 5-dose 0.01-100 µM, read-out: LC50 (the source's name)): > 100 µM
- %GI [11]: 68.55%
- GP (growth percent) [11]: 31.45
- TGI ([12]; 5-dose 0.01-100 µM): 16.1 µM
- GI50 [12, 26]: 3.67 µM
- CC50 [12, 27]: > 100 µM
- %GI [12]: 90.96%
- GP (growth percent) [12]: 9.04
- TGI ([13]; 5-dose 0.01-100 µM): 16.9 µM
- GI50 ([13]; Homo sapiens, K562, 5-dose 0.01-100 µM): 2870 nM
- CC50 ([13]; Homo sapiens, K562, 5-dose 0.01-100 µM, read-out: LC50 (the source's name)): > 100 µM
- %GI [13]: 90.75%
- GP (growth percent) [13]: 9.25
- TGI ([14]; 5-dose 0.01-100 µM): 56.4 µM
- GI50 [14, 26]: 17.2 µM
- CC50 [14, 27]: > 100 µM
- %GI [14]: 17.53%
- GP (growth percent) [14]: 82.47
- TGI ([15]; 5-dose 0.01-100 µM): 53.2 µM
- GI50 [15, 26]: 6.25 µM
- CC50 [15, 27]: > 100 µM
- %GI [15]: 48.38%
- GP (growth percent) [15]: 51.62
- TGI ([16]; 5-dose 0.01-100 µM): 97.9 µM
- GI50 [16, 26]: 5.5 µM
- LC50 (50% lethal concentration) [16, 26]: > 100 µM
- %GI [16]: 72.71%
- GP (growth percent) [16]: 27.29
- TGI ([17]; 5-dose 0.01-100 µM): 25.8 µM
- GI50 [17, 29]: 3.68 µM
- LC50 (lethal concentration, 50% cell kill) [17, 29]: > 100 µM
- %GI [17]: 65.17%
- GP (growth percent) [17]: 34.83
- TGI ([18]; 5-dose 0.01-100 µM): 86.7 µM
- GI50 [18, 26]: 5.28 µM
- CC50 [18, 27]: > 100 µM
- %GI [18]: 61.15%
- GP (growth percent) [18]: 38.85
- TGI ([19]; 5-dose 0.01-100 µM): 24.6 µM
- GI50 [19, 26]: 3.99 µM
- CC50 [19, 27]: > 100 µM
- %GI [19]: 72.77%
- GP (growth percent) [19]: 27.23
- IC50 [25]: 3.89 µM
- TGI ([20]; 5-dose 0.01-100 µM): 83.7 µM
- GI50 [20, 26]: 6.62 µM
- CC50 [20, 27]: > 100 µM
- %GI [20]: 47.61%
- GP (growth percent) [20]: 52.39
- TGI ([21]; 5-dose 0.01-100 µM): >100 µM
- GI50 [21, 26]: 3.95 µM
- CC50 [21, 27]: > 100 µM
- %GI [21]: 72.41%
- GP (growth percent) [21]: 27.59
- Mean % GI [22]: 60.11%
- Selectivity Ratio (MID a:MID b) ([22]; 5-dose assay): 0.76
- GI50 [22, 28]: 6.46 µM
- TGI ([23]; 5-dose 0.01-100 µM): >100 µM
- GI50 [23, 26]: 2980 nM
- CC50 [23, 27]: > 100 µM
- GP (growth percent) ([23]; one dose 10 µM): 13.17
